# According to PubChem BioAssay (NCI):
#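 Five concentrations, 48 hours, 96-well plates. GI50 is the concentration that inhibits growth by half. At the TGI there is no net growth.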
# Columns and labels:
# Assay in all cases: growth of human tumour cells (NCI), 48 h
# 786-0 renal = tested on: 786-0 renal
# A498 renal = tested on: A498 renal
# A549 NSCLC = tested on: A549 NSCLC
# ACHN renal = tested on: ACHN renal
# BT-549 breast = tested on: BT-549 breast
# CAKI-1 renal = tested on: CAKI-1 renal
# CCRF-CEM leukemia = tested on: CCRF-CEM leukemia
# COLO 205 colon = tested on: COLO 205 colon
# DU-145 prostate = tested on: DU-145 prostate
# HCC-2998 colon = tested on: HCC-2998 colon
# HCT-116 colon = tested on: HCT-116 colon
# HCT-15 colon = tested on: HCT-15 colon
# HL-60(TB) leukemia = tested on: HL-60(TB) leukemia
# HOP-62 NSCLC = tested on: HOP-62 NSCLC
# HOP-92 NSCLC = tested on: HOP-92 NSCLC
# HS 578T breast = tested on: HS 578T breast
# HT29 colon = tested on: HT29 colon
# IGROV1 ovarian = tested on: IGROV1 ovarian
# K-562 leukemia = tested on: K-562 leukemia
# KM12 colon = tested on: KM12 colon
# LOX IMVI melanoma = tested on: LOX IMVI melanoma
# M14 melanoma = tested on: M14 melanoma
# MALME-3M melanoma = tested on: MALME-3M melanoma
# MCF7 breast = tested on: MCF7 breast
# MDA-MB-231 breast = tested on: MDA-MB-231 breast
# MDA-MB-435 = tested on: MDA-MB-435
# MOLT-4 leukemia = tested on: MOLT-4 leukemia
# NCI-H226 lung = tested on: NCI-H226 lung
# NCI-H23 lung = tested on: NCI-H23 lung
# NCI-H460 lung = tested on: NCI-H460 lung
# NCI-H522 lung = tested on: NCI-H522 lung
# NCI/ADR-RES ovarian = tested on: NCI/ADR-RES ovarian
# OVCAR-3 ovarian = tested on: OVCAR-3 ovarian
# OVCAR-4 ovarian = tested on: OVCAR-4 ovarian
# OVCAR-5 ovarian = tested on: OVCAR-5 ovarian
# OVCAR-8 ovarian = tested on: OVCAR-8 ovarian
# PC-3 prostate = tested on: PC-3 prostate
# RPMI-8226 leukemia = tested on: RPMI-8226 leukemia
# RXF 393 renal = tested on: RXF 393 renal
# SF-268 CNS = tested on: SF-268 CNS
# SF-295 CNS = tested on: SF-295 CNS
# SF-539 CNS = tested on: SF-539 CNS
# SK-MEL-2 melanoma = tested on: SK-MEL-2 melanoma
# SK-MEL-28 melanoma = tested on: SK-MEL-28 melanoma
# SK-MEL-5 melanoma = tested on: SK-MEL-5 melanoma
# SK-OV-3 ovarian = tested on: SK-OV-3 ovarian
# SN12C renal = tested on: SN12C renal
# SNB-19 CNS = tested on: SNB-19 CNS
# SNB-75 CNS = tested on: SNB-75 CNS
# SR leukemia = tested on: SR leukemia
# SW-620 colon = tested on: SW-620 colon
# T-47D breast = tested on: T-47D breast
# TK-10 renal = tested on: TK-10 renal
# U251 CNS = tested on: U251 CNS
# UACC-257 melanoma = tested on: UACC-257 melanoma
# UACC-62 melanoma = tested on: UACC-62 melanoma
# UO-31 renal = tested on: UO-31 renal
compound,measurement,setting,value
Cc1ccc2c(NCCCN(C)C)c3c(C)nn(C)c3nc2c1,GI50,786-0 renal,4.99 µM
same,TGI,786-0 renal,26.5 µM
same,GI50,A498 renal,1.8 µM
same,TGI,A498 renal,7.86 µM
same,GI50,A549 NSCLC,3.45 µM
same,TGI,A549 NSCLC,25.1 µM
same,GI50,ACHN renal,2.25 µM
same,TGI,ACHN renal,16.9 µM
same,GI50,BT-549 breast,13.7 µM
same,TGI,BT-549 breast,31 µM
same,GI50,CAKI-1 renal,3.04 µM
same,TGI,CAKI-1 renal,38.1 µM
same,GI50,CCRF-CEM leukemia,5.09 µM
same,TGI,CCRF-CEM leukemia,88.8 µM
same,GI50,COLO 205 colon,3.03 µM
same,TGI,COLO 205 colon,11.4 µM
same,GI50,DU-145 prostate,3.88 µM
same,TGI,DU-145 prostate,37.7 µM
same,GI50,HCC-2998 colon,5.83 µM
same,TGI,HCC-2998 colon,22.4 µM
same,GI50,HCT-116 colon,3.04 µM
same,TGI,HCT-116 colon,25.1 µM
same,GI50,HCT-15 colon,2.59 µM
same,TGI,HCT-15 colon,18.3 µM
same,GI50,HL-60(TB) leukemia,5.08 µM
same,TGI,HL-60(TB) leukemia,22.9 µM
same,GI50,HOP-62 NSCLC,6.46 µM
same,TGI,HOP-62 NSCLC,60.2 µM
same,GI50,HOP-92 NSCLC,1.6 µM
same,TGI,HOP-92 NSCLC,5.99 µM
same,GI50,HS 578T breast,4.24 µM
same,TGI,HS 578T breast,33.5 µM
same,GI50,HT29 colon,2.62 µM
same,TGI,HT29 colon,8.88 µM
same,GI50,IGROV1 ovarian,4.17 µM
same,TGI,IGROV1 ovarian,29.6 µM
same,GI50,K-562 leukemia,3.14 µM
same,TGI,K-562 leukemia,> 100 µM
same,GI50,KM12 colon,4.55 µM
same,TGI,KM12 colon,31.8 µM
same,GI50,LOX IMVI melanoma,2.22 µM
same,TGI,LOX IMVI melanoma,5.64 µM
same,GI50,M14 melanoma,4.34 µM
same,TGI,M14 melanoma,17.6 µM
same,GI50,MALME-3M melanoma,4.97 µM
same,TGI,MALME-3M melanoma,22 µM
same,GI50,MCF7 breast,2.53 µM
same,TGI,MCF7 breast,7.04 µM
same,GI50,MDA-MB-231 breast,3.86 µM
same,TGI,MDA-MB-231 breast,19.4 µM
same,GI50,MDA-MB-435,3.28 µM
same,TGI,MDA-MB-435,14 µM
same,GI50,MOLT-4 leukemia,5.11 µM
same,TGI,MOLT-4 leukemia,33.1 µM
same,GI50,NCI-H226 lung,3.34 µM
same,TGI,NCI-H226 lung,27 µM
same,GI50,NCI-H23 lung,5.29 µM
same,TGI,NCI-H23 lung,25.3 µM
same,GI50,NCI-H460 lung,2.96 µM
same,TGI,NCI-H460 lung,10.2 µM
same,GI50,NCI-H522 lung,2.76 µM
same,TGI,NCI-H522 lung,12.7 µM
same,GI50,NCI/ADR-RES ovarian,3.34 µM
same,TGI,NCI/ADR-RES ovarian,66.4 µM
same,GI50,OVCAR-3 ovarian,4.13 µM
same,TGI,OVCAR-3 ovarian,24.8 µM
same,GI50,OVCAR-4 ovarian,3.06 µM
same,TGI,OVCAR-4 ovarian,16.1 µM
same,GI50,OVCAR-5 ovarian,3.69 µM
same,TGI,OVCAR-5 ovarian,22.4 µM
same,GI50,OVCAR-8 ovarian,3.73 µM
same,TGI,OVCAR-8 ovarian,21.7 µM
same,GI50,PC-3 prostate,3.59 µM
same,TGI,PC-3 prostate,16.3 µM
same,GI50,RPMI-8226 leukemia,3.3 µM
same,TGI,RPMI-8226 leukemia,14.4 µM
same,GI50,RXF 393 renal,2.71 µM
same,TGI,RXF 393 renal,12.1 µM
same,GI50,SF-268 CNS,4.18 µM
same,TGI,SF-268 CNS,23.9 µM
same,GI50,SF-295 CNS,3.83 µM
same,TGI,SF-295 CNS,28.4 µM
same,GI50,SF-539 CNS,4.7 µM
same,TGI,SF-539 CNS,19.6 µM
same,GI50,SK-MEL-2 melanoma,3.64 µM
same,TGI,SK-MEL-2 melanoma,11.1 µM
same,GI50,SK-MEL-28 melanoma,4.44 µM
same,TGI,SK-MEL-28 melanoma,17.3 µM
same,GI50,SK-MEL-5 melanoma,3.66 µM
same,TGI,SK-MEL-5 melanoma,14.3 µM
same,GI50,SK-OV-3 ovarian,7.26 µM
same,TGI,SK-OV-3 ovarian,68.7 µM
same,GI50,SN12C renal,3.52 µM
same,TGI,SN12C renal,29.9 µM
same,GI50,SNB-19 CNS,3.96 µM
same,TGI,SNB-19 CNS,39.1 µM
same,GI50,SNB-75 CNS,1.89 µM
same,TGI,SNB-75 CNS,10.9 µM
same,GI50,SR leukemia,3.36 µM
same,TGI,SR leukemia,> 100 µM
same,GI50,SW-620 colon,2.96 µM
same,TGI,SW-620 colon,35.5 µM
same,GI50,T-47D breast,9.5 µM
same,TGI,T-47D breast,98.8 µM
same,GI50,TK-10 renal,2.89 µM
same,TGI,TK-10 renal,14 µM
same,GI50,U251 CNS,4.77 µM
same,TGI,U251 CNS,29.4 µM
same,GI50,UACC-257 melanoma,3.9 µM
same,TGI,UACC-257 melanoma,14.4 µM
same,GI50,UACC-62 melanoma,3.9 µM
same,TGI,UACC-62 melanoma,16.4 µM
same,GI50,UO-31 renal,2.68 µM
same,TGI,UO-31 renal,14 µM
